The text below walks through data of patent publication US7612208B2, “Crystalline form of the salt of 4-(3-chloro-4-(cyclopropylaminocarbonyl)aminophenoxy)-7-methoxy-6-quinolinecarboxamide or the solvate of the salt and a process for preparing the same” (Eisai R&D Management Co., Ltd., priority 2003, dated 2009).

A short description of series [1]: Study of pharmacokinetics in beagle dogs. Format: in vivo. As to conditions: mean ± standard error. Here is the method:
A crystalline form of the free from of the carboxamide (obtained in Preparation Example 1), a crystalline form of the hydrobromide of the carboxamide (obtained in Example 2) and a crystalline form of the mesylate of the carboxamide (Form A) (obtained in Example 5) were grounded in a mortar, encapsulated in a gelatin capsule, and then administered orally to beagle dogs (n=3). After administration, 10 mL of water was further administered orally. The dose was set such that it was equivalent to 3 mg/kg as a free form, and the beagle dogs were fasted from the day before administration, and fed again 8 hours after the administration.
To calculate bioavailability (BA), a test was conducted using a single intravenous administration. More specifically, a crystalline form of the free from of the carboxamide was dissolved in a solution containing 10% dimethyl sulfoxide, 50% polyethylene glycol 400 and 40% 0.1 M aqueous solution of hydrochloric acid and administered intravenously through cephalic vein of the foreleg.
The plasma concentration of the carboxamide was measured by HPLC-UV method after sampling blood from cephalic vein of the foreleg. Based on the concentration, pharmacokinetic parameters were calculated for each individual by the moment method. Further, based on the calculated parameters, the mean value and standard error thereof were calculated.

The target of the next series is c-Kit kinase (Homo sapiens, UniProt P10721). The settings on record: cited from earlier work.
c-Kit kinase, sequence (P10721 26-976): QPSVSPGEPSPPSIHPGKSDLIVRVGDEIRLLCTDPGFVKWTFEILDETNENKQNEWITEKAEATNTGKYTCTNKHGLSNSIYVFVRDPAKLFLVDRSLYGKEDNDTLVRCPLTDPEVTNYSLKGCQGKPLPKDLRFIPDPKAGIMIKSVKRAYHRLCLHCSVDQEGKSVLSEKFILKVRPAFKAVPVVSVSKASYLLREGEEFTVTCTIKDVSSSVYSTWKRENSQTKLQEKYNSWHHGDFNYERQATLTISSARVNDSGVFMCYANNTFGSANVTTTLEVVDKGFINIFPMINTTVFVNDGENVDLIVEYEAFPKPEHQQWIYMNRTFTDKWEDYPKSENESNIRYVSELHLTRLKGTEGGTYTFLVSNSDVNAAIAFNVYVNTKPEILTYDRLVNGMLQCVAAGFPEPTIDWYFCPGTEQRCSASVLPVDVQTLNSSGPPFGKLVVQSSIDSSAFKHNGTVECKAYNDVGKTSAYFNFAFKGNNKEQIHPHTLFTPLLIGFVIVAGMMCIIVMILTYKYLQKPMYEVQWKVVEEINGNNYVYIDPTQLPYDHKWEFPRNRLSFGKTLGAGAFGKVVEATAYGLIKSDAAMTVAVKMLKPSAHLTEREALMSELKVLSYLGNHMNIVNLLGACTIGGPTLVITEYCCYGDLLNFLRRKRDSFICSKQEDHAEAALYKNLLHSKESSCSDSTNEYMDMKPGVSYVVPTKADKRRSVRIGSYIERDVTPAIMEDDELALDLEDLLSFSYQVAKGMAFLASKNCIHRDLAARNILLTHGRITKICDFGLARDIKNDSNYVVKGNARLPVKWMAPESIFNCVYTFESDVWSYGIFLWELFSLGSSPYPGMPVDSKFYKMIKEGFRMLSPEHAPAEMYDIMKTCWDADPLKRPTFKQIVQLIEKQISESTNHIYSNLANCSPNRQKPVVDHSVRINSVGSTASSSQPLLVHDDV
Another series relates to angiogenesis. As to conditions: free-form product; Example 368 of WO 02/32872; cited from earlier work.
Series [2] is described as follows: Test for measuring dissolution rate (rotating disk method). Format: physicochemical. As to conditions: 2nd fluid pH 6.8, 37° C., 50 rpm. Here is the method:
The dissolution rates of the following crystals were measured under the conditions described below by the rotating disk method (see, J. H. Woods et al., J. Pharm. Soc., 54, 1068 (1955)): a crystalline form of the free carboxamide (obtained in Preparation Example 1), a crystalline form of the hydrochloride of the carboxamide (obtained in Example 1), a crystalline form of the hydrobromide of the carboxamide (obtained in Example 2), a crystalline form of the methanesulfonate (hereunder, referred to as “mesylate”) of the carboxamide (Form A) (obtained in Example 5), a crystalline form of the mesylate of the carboxamide (Form C) (obtained in Example 7) and a crystalline form of the ethanesulfonate (hereunder, referred to as “esylate”) (Form β) (obtained in Example 12). The dissolution rates were calculated based on a range in which linearity was maintained in the relation between concentration and time at the initial stage of dissolution.
(Rotating Disk Method Conditions)
• Solvent: “2nd fluid” (pH 6.8, 500 mL) as described in Japanese Pharmacopoeia 14th Edition, General Tests (disintegration test) • Temperature: 37° C. • Disk rotation speed: 50 rpm • Area of powder contacting with solvent on disk: 1 cm^2 • Sampling amount: approx. 1 mL (HPLC Conditions) • Column: Cadenza CD-18 (Imtakt Corporation; inner diameter 4.6 mm, Column length 100 mm, particle size 3 μm) • Column temperature: 40° C. • Flow rate: 1.0 mL/min • Mobile phase:
Concentration of solution B: 20% • Injection amount: 100 μL • Detection: ultraviolet absorbance photometer (wavelength: 252 nm) • Temperature of auto sampler: 25° C. [Results]

Series [3] can be described thus: Temperature-controlled powder X-ray diffraction. Format: physicochemical. The settings on record: 2° C./min. As for the experimental part: Powder X-ray diffraction was conducted under the measurement conditions similar to those in 4. (powder X-ray diffraction) of Test Examples 3. The temperature was increased according to the following conditions. • Temperature controller: PCT-20 (manufactured by Rigaku Denki K.K.) • Rate for the increase of the temperature: 2° C./min • Measurement temperatures: 30° C., 40° C., 60° C., 80° C., 120° C., 140° C., 180° C., 200° C., 205° C., 210° C. and 215° C. [Results]

Turning to `COc1cc2nccc(Oc3ccc(NC(=O)NC4CC4)c(Cl)c3)c2cc1C(N)=O` [free form, 4-(3-chloro-4-(cyclopropylaminocarbonyl)aminophenoxy)-7-methoxy-6-quinolinecarboxamide], the BA in series [1] (beagle dogs n=3, oral 3 mg/kg as free form vs single intravenous administration of free form) was 9.1 ± 0.4%. Besides, the AUC(0-t) in series [1] (dog, plasma, beagle dogs n=3, oral, gelatin capsule, 3 mg/kg as free form, fasted, read-out: AUC0-24hr) was 600 ng·h/mL. In addition, the Cmax in series [1] (dog, plasma, beagle dogs n=3, oral, gelatin capsule, 3 mg/kg as free form, fasted, read-out: Maximum plasma concentration (Cmax)) was determined as 53.3 ± 9.9 ng/mL. Besides, the concentration at 24 h in series [1] (dog, plasma, beagle dogs n=3, oral, gelatin capsule, 3 mg/kg as free form, fasted, read-out: plasma concentration after 24 hours (C24hr)) came out at 24 ± 9 ng/mL. Moreover, the Tmax in series [1] (dog, plasma, beagle dogs n=3, oral, gelatin capsule, 3 mg/kg as free form, fasted, read-out: time to reach maximum plasma concentration (Tmax)) is 1.17 ± 0.4 h. The “inhibitory action for c-Kit kinase” value at c-Kit kinase is “strong inhibitory action”. The angiogenesis inhibition entry in the series on angiogenesis was “excellent angiogenesis inhibition”. The compound also returned a dissolution rate in series [2] of 0.8 μg/min/cm^2.

`COc1cc2nccc(Oc3ccc(NC(=O)NC4CC4)c(Cl)c3)c2cc1C(N)=O.CS(=O)(=O)O.C[S+](C)[O-]` [Dimethyl Sulfoxide Solvate of Methanesulfonate of 4-(3-chloro-4-(cyclopropylaminocarbonyl)aminophenoxy)-7-methoxy-6-quinolinecarboxamide]: the “crystal transition on heating” value is listed as “crystal transition was not observed” in series [3] (temperatures from 30° C. to 80° C.) and “transition to a crystalline form of the mesylate (Form C) was observed” in series [3] (temperatures of 120° C. or more).
